In ChEMBL document CHEMBL4316596, “Antimicrobial Peptides with High Proteolytic Resistance for Combating Gram-Negative Bacteria” (J Med Chem, 2019):
In brackets after ≈: the same amount, converted by molar mass. Activity calls are given as the source filed them. The rule behind the calls is not given here.

Columns and labels:
[1] = test system: Salmonella typhimurium; assay: Antimicrobial activity against Salmonella typhimurium ATCC 14028 after 24 hrs by NCCLS-protocol based assay; type: functional, Salmonella enterica subsp. enterica serovar Typhimurium; conditions: Salmonella enterica, ATCC 14028, 24 h
[2] = Antimicrobial activity against Salmonella pullorum C7913 after 24 hrs by NCCLS-protocol based assay; type: functional, Salmonella enterica subsp. enterica serovar Pullorum; conditions: Salmonella enterica, C7913, 24 h
[3] = test system: Acinetobacter baumannii; assay: Antimicrobial activity against Acinetobacter baumannii after 24 hrs by NCCLS-protocol based assay; type: functional
[4] = test system: Klebsiella pneumoniae; assay: Antimicrobial activity against Klebsiella pneumoniae after 24 hrs by NCCLS-protocol based assay; type: functional
[5] = test system: Pseudomonas aeruginosa; assay: Antimicrobial activity against Pseudomonas aeruginosa ATCC 27853 at sub-MBC after 60 passages; type: functional, organism-based
[6] = test system: Erythrocyte; assay: Hemolytic activity against human RBC after 1 hr; type: ADME, cell-based
[7] = test system: RAW264.7; assay: Cytotoxicity against mouse RAW264.7 cells assessed as cell death after 18 to 24 hrs by MTT assay; type: cell-based
[8] = Cytotoxicity against IPECJ2 cells assessed as cell death after 18 to 24 hrs by MTT assay; type: cell-based; conditions: Sus scrofa, IPEC-J2
[9] = Selectivity ratio of HC10 for human RBC to geometric mean of the peptide MBC for bacteria
[10] = test system: Escherichia coli; assay: Bactericidal activity against Escherichia coli ATCC 25922 incubated for 4 hrs followed by culture spread on agar plates and cultured overnight in presence of KCl; type: functional; conditions: ATCC 25922, 4 h, read-out: MBC>99.9
[11] = test system: Escherichia coli; assay: Bactericidal activity against Escherichia coli ATCC 25922 incubated for 4 hrs followed by culture spread on agar plates and cultured overnight in presence of ZnCl2; type: functional; conditions: ATCC 25922, 4 h, read-out: MBC>99.9
[12] = test system: Escherichia coli; assay: Bactericidal activity against Escherichia coli ATCC 25922 incubated for 4 hrs followed by culture spread on agar plates and cultured overnight in presence of NH4Cl; type: functional; conditions: ATCC 25922, 4 h, read-out: MBC>99.9
[13] = test system: Escherichia coli; assay: Bactericidal activity against Escherichia coli ATCC 25922 incubated for 4 hrs followed by culture spread on agar plates and cultured overnight in presence of 50% serum albumin; type: functional; conditions: ATCC 25922, 4 h, read-out: MBC>99.9
[14] = test system: Escherichia coli; assay: Bactericidal activity against Escherichia coli ATCC 25922 incubated for 4 hrs followed by culture spread on agar plates and cultured overnight in presence of 25% serum albumin; type: functional; conditions: ATCC 25922, 4 h, read-out: MBC>99.9
[15] = test system: Escherichia coli; assay: Bactericidal activity against Escherichia coli ATCC 25922 incubated for 4 hrs followed by culture spread on agar plates and cultured overnight in presence of 12.5% serum albumin; type: functional; conditions: ATCC 25922, 4 h, read-out: MBC>99.9
[16] = test system: Escherichia coli; assay: Bactericidal activity against Escherichia coli ATCC 25922 incubated for 4 hrs followed by culture spread on agar plates and cultured overnight in presence of 1 mg/ml trypsin; type: functional; conditions: ATCC 25922, 4 h, read-out: MBC>99.9
[17] = test system: Escherichia coli; assay: Bactericidal activity against Escherichia coli ATCC 25922 incubated for 4 hrs followed by culture spread on agar plates and cultured overnight in presence of 0.5 mg/ml trypsin; type: functional; conditions: ATCC 25922, 4 h, read-out: MBC>99.9
[18] = test system: Escherichia coli; assay: Bactericidal activity against Escherichia coli ATCC 25922 incubated for 4 hrs followed by culture spread on agar plates and cultured overnight in presence of 0.25 mg/ml chymotrypsin; type: functional; conditions: ATCC 25922, 4 h, read-out: MBC>99.9
[19] = test system: Escherichia coli; assay: Antibacterial activity against Escherichia coli ATCC 25922 infected in ICR mouse assessed as log reduction in bacterial cells in spleen at 5 mg/kg, ip administered at 5 mg/kg, ip dosed at 0.5, 2, 4 and 8 hrs post-infection; type: functional
[20] = test system: Escherichia coli; assay: Antibacterial activity against Escherichia coli ATCC 25922 infected in ICR mouse assessed as log reduction in bacterial cells in peritoneal cavity at 5 mg/kg, ip administered at 5 mg/kg, ip dosed at 0.5, 2, 4 and 8 hrs post-infection; type: functional
[21] = test system: Escherichia coli; assay: Bactericidal activity against Escherichia coli ATCC 25922 incubated for 4 hrs followed by culture spread on agar plates and cultured overnight in presence of 4 mg/ml pepsin; type: functional, organism-based
[22] = test system: Escherichia coli; assay: Bactericidal activity against Escherichia coli UB1005 incubated for 4 hrs followed by culture spread on agar plates and cultured overnight; type: functional; conditions: UB1005, 4 h, read-out: MBC>99.9
[23] = test system: Escherichia coli; assay: Bactericidal activity against Escherichia coli 078 incubated for 4 hrs followed by culture spread on agar plates and cultured overnight; type: functional; conditions: Escherichia coli, 078, 4 h; read-out: MBC>99.9
[24] = test system: Pseudomonas aeruginosa; assay: Bactericidal activity against Pseudomonas aeruginosa CICC 21630 clinical isolates incubated for 4 hrs followed by culture spread on agar plates and cultured overnight; type: functional; conditions: CICC 21630, 4 h, read-out: MBC>99.9
[25] = test system: Pseudomonas aeruginosa; assay: Bactericidal activity against Pseudomonas aeruginosa 25349 clinical isolates incubated for 4 hrs followed by culture spread on agar plates and cultured overnight; type: functional; conditions: Pseudomonas aeruginosa, 25349, 4 h; read-out: MBC>99.9
[26] = test system: Salmonella typhimurium; assay: Bactericidal activity against Salmonella typhimurium ATCC 14028 incubated for 4 hrs followed by culture spread on agar plates and cultured overnight; type: functional, Salmonella enterica subsp. enterica serovar Typhimurium; conditions: Salmonella enterica, ATCC 14028, 4 h; read-out: MBC>99.9
[27] = test system: Salmonella typhimurium; assay: Bactericidal activity against Salmonella typhimurium C7731 incubated for 4 hrs followed by culture spread on agar plates and cultured overnight; type: functional, Salmonella enterica subsp. enterica serovar Typhimurium; conditions: Salmonella enterica, C7731, 4 h; read-out: MBC>99.9
[28] = Bactericidal activity against Salmonella pullorum C7913 incubated for 4 hrs followed by culture spread on agar plates and cultured overnight; type: functional, Salmonella enterica subsp. enterica serovar Pullorum; conditions: Salmonella enterica, C7913, 4 h; read-out: MBC>99.9
[29] = test system: Klebsiella pneumoniae; assay: Bactericidal activity against Klebsiella pneumoniae incubated for 4 hrs followed by culture spread on agar plates and cultured overnight; type: functional; conditions: read-out: MBC>99.9
[30] = molecular target: Trypsin (Homo sapiens, UniProt P07477+P07478+P35030); assay: Stability of the compound assessed as trypsin (unknown origin)-mediated compound hydrolysis after 8 hrs by SDS-PAGE analysis; type: ADME, protein assay
[31] = molecular target: T1, Chymotrypsin (Homo sapiens, UniProt Q99895+P17538+P40313+Q6GPI1); assay: Stability of the compound assessed as chymotrypsin (unknown origin)-mediated compound hydrolysis after 4 hrs by SDS-PAGE analysis; type: ADME, protein assay
[32] = molecular target: T1, Chymotrypsin; assay: Stability of the compound assessed as chymotrypsin (unknown origin)-mediated compound hydrolysis by measuring compound helicity by CD spectroscopy; type: ADME, protein assay
[33] = Stability of the compound assessed as pepsin (unknown origin)-mediated compound hydrolysis by measuring compound helicity by CD spectroscopy; type: ADME; conditions: human
[34] = test system: Escherichia coli; assay: Induction of outer membrane permeabilization in Escherichia coli ATCC 25922 at 1 uM by NPN-dye based assay relative to control
[35] = test system: Escherichia coli; assay: Induction of cytoplasmic membrane depolarization in Escherichia coli ATCC 25922 assessed as induction cytoplasmic ONPG release at 2 to 16 uM up to 120 mins by DiSC3-5 dye-based fluorescence spectrophotometric method; type: functional, organism-based
[36] = test system: Escherichia coli; assay: Bactericidal activity against Escherichia coli ATCC 25922 incubated for 4 hrs followed by culture spread on agar plates and cultured overnight in presence of 0.125 to 4 mg/ml proteinase K; type: functional, organism-based
[37] = molecular target: T1, Chymotrypsin; assay: Stability of the compound assessed as chymotrypsin (unknown origin)-mediated compound hydrolysis after 8 hrs by SDS-PAGE analysis; type: ADME, protein assay
[38] = Stability of the compound assessed as Tritirachium album proteinase K-mediated compound hydrolysis after 8 hrs by SDS-PAGE analysis; type: ADME; conditions: parengyodontium album
[39] = Stability of the compound assessed as Tritirachium album proteinase K-mediated compound hydrolysis by measuring compound helicity by CD spectroscopy; type: ADME; conditions: parengyodontium album

Molecule	MIC95 [1] [µM]	MIC95 [2] [µM]	MIC95 [3] [µM]	MIC95 [4] [µM]	HC10 [6] [µM]	IC50 [7] [µM]	Ratio [9]	MBC [10] [µM]	MBC [11] [µM]	MBC [12] [µM]	MBC [13] [µM]	MBC [14] [µM]	MBC [15] [µM]	MBC [16] [µM]	MBC [17] [µM]	MBC [18] [µM]	MBC [22] [µM]	MBC [23] [µM]	MBC [24] [µM]	MBC [25] [µM]	also measured
H-LKPLLKPLLKPLLKPLLKPLLKPLLKPL-NH2	1	2	1	1	> 128	1.56	94.5	1	1	1	64	8	2	1	1	1	2	2	8	8	Activity [5]: Active; IC50 [8]: 24.4 µM; log(activity) [19]: 1; log(activity) [20]: 1; Activity [21]: inactive; MBC [26]: 2 µM; MBC [27]: 2 µM; MBC [28]: 4 µM; MBC [29]: 2 µM; Stability [30]: Stable; Stability [31]: Unstable; Stability [32]: Unstable; Stability [33]: Unstable
CC[C@H](C)[C@H](NC(=O)CN)C(=O)NCC(=O)N[C@@H](C)C(=O)N[C@H](C(=O)N[C@@H](CC(C)C)C(=O)N[C@@H](CCCCN)C(=O)N[C@H](C(=O)N[C@@H](CC(C)C)C(=O)N[C@H](C(=O)N[C@H](C(=O)NCC(=O)N[C@@H](CC(C)C)C(=O)N1CCC[C@H]1C(=O)N[C@@H](C)C(=O)N[C@@H](CC(C)C)C(=O)N[C@H](C(=O)N[C@@H](CO)C(=O)N[C@@H](Cc1c[nH]c2ccccc12)C(=O)N[C@H](C(=O)N[C@@H](CCCCN)C(=O)N[C@@H](CCCNC(=N)N)C(=O)N[C@@H](CCCCN)C(=O)N[C@@H](CCCNC(=N)N)C(=O)N[C@@H](CCC(N)=O)C(=O)N[C@@H](CCC(N)=O)C(N)=O)[C@@H](C)CC)[C@@H](C)CC)[C@@H](C)O)[C@@H](C)O)C(C)C)C(C)C [MELITTIN]	1 (≈ 2.85 µg/mL)	2 (≈ 5.69 µg/mL)	1 (≈ 2.85 µg/mL)	2 (≈ 5.69 µg/mL)	2	2.09	0.92	2	2	2	64	64	32	16	4	4	2 (≈ 5.69 µg/mL)	1 (≈ 2.85 µg/mL)	4 (≈ 11.4 µg/mL)	4 (≈ 11.4 µg/mL)	Activity [34]: Active; MBC [26]: 2 µM (≈ 5.69 µg/mL); MBC [27]: 2 µM (≈ 5.69 µg/mL); MBC [28]: 4 µM (≈ 11.4 µg/mL); MBC [29]: 2 µM (≈ 5.69 µg/mL); Activity [35]: Active
H-IKPIIKPIIKPIIKPIIKPIIKPIIKPI-NH2	64	64	2	16	> 128	2750	7.03	32	32	16	> 128	> 128	> 128	16	16	16	4	16	> 64	> 64	IC50 [8]: 345 µM; Activity [21]: inactive; Activity [36]: Active; MBC [26]: > 64 µM; MBC [27]: > 64 µM; MBC [28]: > 64 µM; MBC [29]: 64 µM; Stability [30]: Stable; Stability [37]: Stable; Stability [38]: Stable; Stability [39]: Unstable
H-LRPLLRPLLRPLLRPLLRPLLRPLLRPL-NH2	1	1	1	2	64	2.29	24.7	2	2	2	16	8	4	2	2	2	2	1	4	8	Activity [5]: Active; IC50 [8]: 10.7 µM; log(activity) [19]: 1; log(activity) [20]: 1; Activity [21]: inactive; MBC [26]: 2 µM; MBC [27]: 2 µM; MBC [28]: 2 µM; MBC [29]: 4 µM; Stability [30]: Stable; Stability [31]: Unstable; Stability [32]: Unstable; Stability [33]: Unstable
